How the values were obtained:
[1] = test system: h-TELO (DNA, G4) AGGGTTAGGGTTAGGGTTAGGG; experiment: ITC; details: 100 mM K+; 10 mM HEPES, pH 7.4, 298 K; h-TELO 5 μM in cell
[2] = test system: h-TELO (dual-labeled) (DNA, G4) AGGGTTAGGGTTAGGGTTAGGG; experiment: FRET melting; details: 100 mM K+; 10 mM HEPES, pH 7.4; MG 1.5 μM (3 equiv.), DNA 0.5 μM; Tm 49 to 76 °C
[3] = test system: h-TELO (DNA, G4) AGGGTTAGGGTTAGGGTTAGGG; experiment: fluorescence titration of MG emission; details: 100 mM K+; 10 mM HEPES, pH 7.4, 25 °C; MG 10 μM, h-TELO 0-6 μM

Structure (SMILES): CCCCCCCCCCCCCCCCCC(=O)NCc1cn(CCCC(=O)OC[C@H]2O[C@@H](n3cnc4c(=O)[nH]c(N)nc43)[C@@H]3OC(C)(C)O[C@@H]32)nn1
- Kd [1]: 4.48 µM
- ΔTm [2]: 27 °C
- Kd [3]: 3.2 µM
